Patent US20070128217A1 (priority 2003, published 2007)

Key:
[1] = system: antibodies in sera from SARS patients (sera 1a, 1b, 2, 6, 37, 62, London, SARS-yellow, SARS-green); type: binding, human; set-up: Binding of serum 6 to linear peptides of protein X1 of SARS-CoV Urbani / Binding of serum 37 to linear peptides of protein X1 of SARS-CoV Urbani / Binding of serum 6 to looped/cyclic peptide (PEPSCAN-ELISA) / Binding of serum 37 to looped/cyclic peptide (PEPSCAN-ELISA) / Binding of serum 37 to looped/cyclic peptides of protein X1 of SARS-CoV Urbani / Binding of serum 6 to linear peptides of protein X2 / Binding of serum 37 to linear peptides of protein X2 / Binding of serum 37 to looped/cyclic peptides of protein X2 of SARS-CoV Urbani / Binding of serum 6 to linear peptides of protein M of SARS-CoV Urbani / Binding of serum 37 to linear peptides of protein M of SARS-CoV Urbani / Binding of serum 6 to looped/cyclic peptides of protein M of SARS-CoV Urbani / Binding of serum 37 to looped/cyclic peptides of protein M of SARS-CoV Urbani / Binding of serum 6 to linear peptides of protein X3 of SARS-CoV Urbani / Binding of serum 37 to linear peptides of protein X3 of SARS-CoV Urbani / Binding of serum 37 to looped/cyclic peptides of protein X3 of SARS-CoV Urbani / Binding of serum 6 to linear peptides of protein X4 of SARS-CoV Urbani / Binding of serum 37 to linear peptides of protein X4 of SARS-CoV Urbani / Binding of serum 37 to looped/cyclic peptides of protein X4 of SARS-CoV Urbani / Binding of serum 6 to linear peptides of protein X5 of SARS-CoV Urbani / Binding of serum 37 to linear peptides of protein X5 of SARS-CoV Urbani / Binding of serum 37 to looped/cyclic peptides of protein X5 of SARS-CoV Urbani / Binding of serum 6 to linear peptides of protein N of SARS-CoV Urbani / Binding of serum 37 to linear peptides of protein N of SARS-CoV Urbani / Binding of serum 6 to linear peptide (PEPSCAN-ELISA) / Binding of serum 1a to looped/cyclic peptides of protein N of SARS-CoV Urbani / Binding of serum 1b to looped/cyclic peptides of protein N of SARS-CoV Urbani / Binding of serum 2 to looped/cyclic peptides of protein N of SARS-CoV Urbani / Binding of serum 6 to looped/cyclic peptides of protein N of SARS-CoV Urbani / Binding of serum 37 to looped/cyclic peptides of protein N of SARS-CoV Urbani / Binding of serum 62 to looped/cyclic peptides of protein N of SARS-CoV Urbani / Binding of serum London to looped/cyclic peptides of protein N of SARS-CoV Urbani / Binding of serum SARS-green to looped/cyclic peptides of protein N of SARS-CoV Urbani: unit not given here
[2] = system: control sera (pooled serum of ten healthy LUMC hospital workers; commercial negative donor pooled serum from the Dutch bloodbank); type: binding, human; set-up: Binding of Control serum LUMC to linear peptides / Binding of Control serum Blood-bank to linear peptides / Binding of Control serum LUMC to looped peptides / Binding of Control Serum Blood-Bank to Looped peptides / Binding of Control serum LUMC to linear peptides of the protein M of SARS-CoV Urbani / Binding of Control serum Blood-bank to linear peptides of the protein M of SARS-CoV Urbani / Binding of Control serum LUMC to looped peptides of the protein M of SARS-CoV Urbani / Binding of Control Serum Blood-Bank to Looped peptides of the protein M of SARS-CoV Urbani: unit not given here
[3] = system: rabbit serum obtained by immunizing a rabbit with the SARS-CoV strain Frankfurt 1; type: binding; set-up: Binding of a rabbit serum to linear peptides / Binding of a rabbit serum to looped peptides / Rabbit serum linear peptides / Rabbit serum looped peptides / Binding of a rabbit serum to linear peptides of protein N of SARS-CoV Urbani (Rabbit serum linear peptides) / Binding of a rabbit serum to looped/cyclic peptides of protein N of SARS-CoV Urbani (Rabbit serum looped peptides): unit not given here

Sequence: LIQQWIQFMMSRRRL
- Binding of serum 1a to linear peptides of protein X2 [1]: 0.7
- Binding of serum 1a to looped/cyclic peptides of protein X2 of SARS-CoV Urbani [1]: 0.5
- Binding of serum 1b to linear peptides of protein X2 [1]: 0.4
- Binding of serum 1b to looped/cyclic peptides of protein X2 of SARS-CoV Urbani [1]: 0.5
- Binding of serum 2 to linear peptides of protein X2 [1]: 0.4
- Binding of serum 2 to looped/cyclic peptides of protein X2 of SARS-CoV Urbani [1]: 0.8
- Binding of serum 6 to linear peptides of protein X2 [1]: 0.7
- Binding of serum 6 to looped/cyclic peptides of protein X2 of SARS-CoV Urbani [1]: 0.5
- Binding of serum 37 to linear peptides of protein X2 [1]: 0.6
- Binding of serum 37 to looped/cyclic peptides of protein X2 of SARS-CoV Urbani [1]: 0.5
- Binding of serum 62 to linear peptides of protein X2 [1]: 0.5
- Binding of serum 62 to looped/cyclic peptides of protein X2 of SARS-CoV Urbani [1]: 0.8
- Binding of serum London to linear peptides of protein X2 [1]: 0.5
- Binding of serum London to looped/cyclic peptides of protein X2 of SARS-CoV Urbani [1]: 0.9
- Binding of serum SARS-green to linear peptides of protein X2 [1]: 0.4
- Binding of serum SARS-green to looped/cyclic peptides of protein X2 of SARS-CoV Urbani [1]: 0.3
- Binding of serum SARS-yellow to linear peptides of protein X2 [1]: 0.8
- Binding of serum SARS-yellow to looped/cyclic peptides of protein X2 of SARS-CoV Urbani [1]: 0.5
- Binding of Control Serum Blood-Bank to Looped peptides [2]: 0.4
- Binding of Control serum Blood-bank to linear peptides [2]: 0.7
- Binding of Control serum LUMC to linear peptides [2]: 0.5
- Binding of Control serum LUMC to looped peptides [2]: 0.6
- Binding of a rabbit serum to linear peptides [3]: 0.3
- Binding of a rabbit serum to looped peptides [3]: 1.2

Sequence: LIVAALVFLILCFTI
- Binding of serum 1a to linear peptides of protein X4 of SARS-CoV Urbani [1]: 0.7
- Binding of serum 1a to looped/cyclic peptides of protein X4 of SARS-CoV Urbani [1]: 0.6
- Binding of serum 1b to linear peptides of protein X4 of SARS-CoV Urbani [1]: 0.5
- Binding of serum 1b to looped/cyclic peptides of protein X4 of SARS-CoV Urbani [1]: 0.3
- Binding of serum 2 to linear peptides of protein X4 of SARS-CoV Urbani [1]: 0.5
- Binding of serum 2 to looped/cyclic peptides of protein X4 of SARS-CoV Urbani [1]: 0.5
- Binding of serum 6 to linear peptides of protein X4 of SARS-CoV Urbani [1]: 0.4
- Binding of serum 6 to looped/cyclic peptides of protein X4 of SARS-CoV Urbani [1]: 0.3
- Binding of serum 37 to linear peptides of protein X4 of SARS-CoV Urbani [1]: 0.6
- Binding of serum 37 to looped/cyclic peptides of protein X4 of SARS-CoV Urbani [1]: 0.6
- Binding of serum 62 to linear peptides of protein X4 of SARS-CoV Urbani [1]: 0.6
- Binding of serum 62 to looped/cyclic peptides of protein X4 of SARS-CoV Urbani [1]: 0.6
- Binding of serum London to linear peptides of protein X4 of SARS-CoV Urbani [1]: 0.6
- Binding of serum London to looped/cyclic peptides of protein X4 of SARS-CoV Urbani [1]: 0.2
- Binding of serum SARS-green to linear peptides of protein X4 of SARS-CoV Urbani [1]: 0.5
- Binding of serum SARS-green to looped/cyclic peptides of protein X4 of SARS-CoV Urbani [1]: 0.4
- Binding of serum SARS-yellow to linear peptides of protein X4 of SARS-CoV Urbani [1]: 0.4
- Binding of serum SARS-yellow to looped/cyclic peptides of protein X4 of SARS-CoV Urbani [1]: 0.5
- Binding of Control Serum Blood-Bank to Looped peptides [2]: 0.5
- Binding of Control serum Blood-bank to linear peptides [2]: 0.6
- Binding of Control serum LUMC to linear peptides [2]: 0.4
- Binding of Control serum LUMC to looped peptides [2]: 0.5
- Rabbit serum linear peptides [3]: 0.5
- Rabbit serum looped peptides [3]: 0.4

Sequence: LKMLHSSSLTSLLKT
- Binding of serum 1a to linear peptides of protein X2 [1]: 0.6
- Binding of serum 1a to looped/cyclic peptides of protein X2 of SARS-CoV Urbani [1]: 0.5
- Binding of serum 1b to linear peptides of protein X2 [1]: 0.5
- Binding of serum 1b to looped/cyclic peptides of protein X2 of SARS-CoV Urbani [1]: 0.5
- Binding of serum 2 to linear peptides of protein X2 [1]: 0.6
- Binding of serum 2 to looped/cyclic peptides of protein X2 of SARS-CoV Urbani [1]: 0.3
- Binding of serum 6 to linear peptides of protein X2 [1]: 0.4
- Binding of serum 6 to looped/cyclic peptides of protein X2 of SARS-CoV Urbani [1]: 0.3
- Binding of serum 37 to linear peptides of protein X2 [1]: 0.6
- Binding of serum 37 to looped/cyclic peptides of protein X2 of SARS-CoV Urbani [1]: 0.4
- Binding of serum 62 to linear peptides of protein X2 [1]: 0.6
- Binding of serum 62 to looped/cyclic peptides of protein X2 of SARS-CoV Urbani [1]: 0.6
- Binding of serum London to linear peptides of protein X2 [1]: 0.5
- Binding of serum London to looped/cyclic peptides of protein X2 of SARS-CoV Urbani [1]: 0.2
- Binding of serum SARS-green to linear peptides of protein X2 [1]: 0.5
- Binding of serum SARS-green to looped/cyclic peptides of protein X2 of SARS-CoV Urbani [1]: 0.3
- Binding of serum SARS-yellow to linear peptides of protein X2 [1]: 0.6
- Binding of serum SARS-yellow to looped/cyclic peptides of protein X2 of SARS-CoV Urbani [1]: 0.2
- Binding of Control Serum Blood-Bank to Looped peptides [2]: 0.6
- Binding of Control serum Blood-bank to linear peptides [2]: 0.7
- Binding of Control serum LUMC to linear peptides [2]: 0.4
- Binding of Control serum LUMC to looped peptides [2]: 0.5
- Binding of a rabbit serum to linear peptides [3]: 0.2
- Binding of a rabbit serum to looped peptides [3]: 0.4
